Here are results for 23 compounds from ChEMBL document CHEMBL4152341, “Small Molecules Simultaneously Inhibiting p53-Murine Double Minute 2 (MDM2) Interaction and Histone Deacetylases (HDACs): Discovery of Novel Multitargeting Antitumor Agents” (J Med Chem, 2018).

Experiment [1] deals with NCI-H1299. Nature of the experiment: Antiproliferative activity against human NCI-H1299 cells after 72 hrs by CCK8 assay. The following applies: NCI-H1299, 72 h. The format is functional, cell-based.
The target in experiment [2] is E3 ubiquitin-protein ligase Mdm2 (Homo sapiens, UniProt Q00987). Kind of experiment: Inhibition of MDM2 (unknown origin) preincubated for 30 mins by fluorescence polarization assay.
E3 ubiquitin-protein ligase Mdm2, sequence (Q00987 whole entry): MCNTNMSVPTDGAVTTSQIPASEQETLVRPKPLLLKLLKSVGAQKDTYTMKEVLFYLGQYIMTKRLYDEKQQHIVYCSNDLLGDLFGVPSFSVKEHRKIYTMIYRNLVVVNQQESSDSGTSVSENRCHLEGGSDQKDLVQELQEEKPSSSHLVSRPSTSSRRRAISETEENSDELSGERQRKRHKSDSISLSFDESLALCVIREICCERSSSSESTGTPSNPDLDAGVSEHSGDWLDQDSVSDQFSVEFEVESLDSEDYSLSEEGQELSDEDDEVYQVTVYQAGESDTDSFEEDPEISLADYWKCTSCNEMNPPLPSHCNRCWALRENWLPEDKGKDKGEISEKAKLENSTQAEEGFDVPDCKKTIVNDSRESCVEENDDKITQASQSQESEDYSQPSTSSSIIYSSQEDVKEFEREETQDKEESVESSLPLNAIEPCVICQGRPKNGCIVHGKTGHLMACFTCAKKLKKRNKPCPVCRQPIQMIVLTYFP
Experiment [3] has as its system MCF7. Kind of experiment: cells. The conditions noted are these: Homo sapiens, MCF7, 72 h.
Description: Antiproliferative activity against human MCF7 cells after 72 hrs by CCK8 assay
For experiment [4], the system named is A549. Nature of the experiment: Antiproliferative activity against human A549 cells after 72 hrs by CCK8 assay. It counts as functional, cell-based. The conditions noted are these: A549, 72 h.
Experiment [5] has as its target Histone deacetylase 1 (Homo sapiens, UniProt Q13547). Kind of experiment: Inhibition of human recombinant full length HDAC1 using fluorogenic substrate 3 after 30 mins by fluorescence assay.
In experiment [6] the test system is HCT-116. Nature of the experiment: Antiproliferative activity against human HCT116 cells after 72 hrs by CCK8 assay. The following applies: HCT-116, 72 h. It counts as functional, cell-based.
For experiment [7], the target named is T1, Tumour suppressor p53/oncoprotein Mdm2 (Homo sapiens) (UniProt P04637+Q00987). Nature of the experiment: Inhibition of MDM2/P53 interaction in human A549 cells assessed as increase in p53 expression at 10 uM after 12 hrs by Western blot analysis. The format is cell-based.
T1 sequence (P04637 whole entry, looked up): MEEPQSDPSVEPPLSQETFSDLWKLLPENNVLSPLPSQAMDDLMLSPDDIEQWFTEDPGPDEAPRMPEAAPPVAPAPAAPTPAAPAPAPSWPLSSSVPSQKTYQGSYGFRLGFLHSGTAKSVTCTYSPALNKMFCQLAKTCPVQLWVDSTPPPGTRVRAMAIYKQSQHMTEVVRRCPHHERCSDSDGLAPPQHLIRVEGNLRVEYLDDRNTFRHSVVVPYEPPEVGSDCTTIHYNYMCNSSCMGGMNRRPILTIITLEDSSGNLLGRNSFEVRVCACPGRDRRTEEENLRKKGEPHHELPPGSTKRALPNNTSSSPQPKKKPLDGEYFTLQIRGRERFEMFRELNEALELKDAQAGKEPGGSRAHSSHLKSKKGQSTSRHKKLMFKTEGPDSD
T1 sequence (Q00987 whole entry, looked up): as the sequence (Q00987 whole entry) above
Experiment [8] relates to A549. Nature of the experiment: cells. The conditions noted are these: Homo sapiens, A549, 48 h, read-out: Activity.
The subject of experiment [9] is A549. Kind of experiment: cells. The conditions noted are these: Homo sapiens, A549, 48 h, read-out: Activity. The source holds these as a separate data set.
Experiment [10] has as its system A549. Nature of the experiment: animal or person. It counts as functional, Homo sapiens. The following applies: Mus musculus, A549, po, read-out: TGI.
Experiment [11] addresses T1, Tumour suppressor p53/oncoprotein Mdm2 (Homo sapiens). Nature of the experiment: Inhibition of MDM2/P53 interaction in human A549 cells assessed as increase in p53 expression at 5 to 10 uM after 12 hrs by Western blot analysis. It counts as cell-based.
Experiment [12] shares this target. Kind of experiment: Inhibition of MDM2/P53 interaction in human A549 cells assessed as increase in MDM2 expression at 5 to 10 uM after 12 hrs by Western blot analysis. The format is cell-based.

Activity calls are given as the source filed them. No cut-off for these calls is given here.

Histone deacetylase 1, sequence (Q13547 whole entry): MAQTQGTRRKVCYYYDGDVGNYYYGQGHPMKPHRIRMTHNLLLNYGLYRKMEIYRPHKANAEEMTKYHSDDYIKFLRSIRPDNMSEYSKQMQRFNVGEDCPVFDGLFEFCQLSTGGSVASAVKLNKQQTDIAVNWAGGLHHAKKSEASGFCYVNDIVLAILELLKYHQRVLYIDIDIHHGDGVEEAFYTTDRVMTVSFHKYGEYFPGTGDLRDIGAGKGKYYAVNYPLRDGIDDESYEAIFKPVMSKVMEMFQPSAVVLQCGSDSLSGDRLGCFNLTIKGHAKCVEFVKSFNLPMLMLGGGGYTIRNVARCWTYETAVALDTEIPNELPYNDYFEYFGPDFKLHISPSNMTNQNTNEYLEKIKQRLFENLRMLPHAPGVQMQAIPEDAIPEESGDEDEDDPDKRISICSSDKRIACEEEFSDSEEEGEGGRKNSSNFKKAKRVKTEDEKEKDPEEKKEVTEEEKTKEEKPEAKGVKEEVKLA

On to `CCOc1cc(C(C)(C)C)ccc1C1=NC(c2ccc(Cl)cc2)C(c2ccc(Cl)cc2)N1C(=O)NCCCCC(=O)NO` (stereo not drawn), for which the concentration for half-maximal inhibition (IC50) worked out at 16.2 µM in experiment [1]; 12.8 µM in [3]; 9.34 µM in experiment [4]; 2.92 µM in [5]; 10.7 µM in experiment [6]. In addition, the Ki in experiment [2] was found to be 0.33 µM.
Take `CCOc1cc(C(C)(C)C)ccc1C1=NC(c2ccc(Cl)cc2)C(c2ccc(Cl)cc2)N1C(=O)NCc1ccc(C(=O)NO)cc1` (stereo not drawn): the half-maximal inhibitory concentration (IC50) in [1] is 7.71 µM; in experiment [3] it was 13.3 µM; in experiment [4] it was 7.64 µM; in experiment [5], 3.7 µM; in [6] it was 9.1 µM. For the same compound, the Ki in [2] amounted to 0.58 µM.
For the compound `CCOc1cc(C(C)(C)C)ccc1C1=NC(c2ccc(Cl)cc2)C(c2ccc(Cl)cc2)N1C(=O)N1CCN(Cc2ccc(C(=O)NO)cc2)CC1` (stereo not drawn), the IC50 in experiment [1] stood at 3 µM; in [3] it was 3.97 µM; in experiment [4], 2.17 µM; in [5], 3.51 µM; in experiment [6], 2.03 µM. This compound returned a Ki in experiment [2] of 0.26 µM.
Compound `CCOc1cc(C(C)(C)C)ccc1C1=N[C@H](c2ccc(Cl)cc2)[C@H](c2ccc(Cl)cc2)N1C(=O)N1CCN(CCCCCCC(=O)NO)CC1` had an inhibition constant Ki in [2] of 10.9 µM. Also, in [7], the outcome was Active. Besides, the IC50 in experiment [4] came to 9.02 µM; in experiment [5] it was 0.91 µM; in experiment [6], 10 µM.
With `CCOc1cc(C(C)(C)C)ccc1C1=NC(c2ccc(Cl)cc2)C(c2ccc(Cl)cc2)N1C(=O)NCCCCCC(=O)NO` (stereo not drawn), the half-maximal inhibitory concentration (IC50) in experiment [1] stood at 10.4 µM; in experiment [3], 10.6 µM; in [4], 5.72 µM; in experiment [5], 1.13 µM; in experiment [6] it was 7.15 µM. The compound also gave a Ki in experiment [2] of 0.28 µM.
In [1], `O=C(CCCCCCC(=O)Nc1ccccc1)NO` [VORINOSTAT] showed an IC50 of 4.92 µM. Also, in [2], the Ki was more than 20 µM.
`COc1ccc(C2=N[C@@H](c3ccc(Cl)cc3)[C@@H](c3ccc(Cl)cc3)N2C(=O)N2CCNC(=O)C2)c(OC(C)C)c1` [NUTLIN-3]: the viability at 1 µM in experiment [8] worked out at 89.8%. For the same compound, the IC50 in experiment [1] was 19.8 µM; in [3] it was 8.5 µM; in [4] it was 9.58 to 11.7 µM; in [5] it was more than 100 µM; in experiment [6], 9.07 to 9.97 µM. Moreover, the viability at 5 µM in experiment [9] came to 83.3%. In addition, the inhibition in vivo at 100 mg/kg in [10] was determined as 44%.
In the case of `CCOc1cc(C(C)(C)C)ccc1C1=NC(c2ccc(Cl)cc2)C(c2ccc(Cl)cc2)N1C(=O)NCCCCCCC(=O)NO` (stereo not drawn), the IC50 in [1] is 7.65 µM; in experiment [3], 7.23 µM; in experiment [4], 5.97 µM; in experiment [5], 0.89 µM; in experiment [6] it was 7.09 µM. Affinity in experiment [2] was put at a Ki of 0.32 µM.
With `CCOc1cc(C(C)(C)C)ccc1C1=NC(c2ccc(Cl)cc2)C(c2ccc(Cl)cc2)N1C(=O)NCCCCCCCC(=O)NO` (stereo not drawn), the IC50 is 9.06 µM in experiment [1]; 7.92 µM in experiment [3]; 4.85 µM in experiment [4]; 0.27 µM in experiment [5]; 5.03 µM in [6]. In addition, the Ki in experiment [2] came to 0.34 µM.
On to `CCOc1cc(C(C)(C)C)ccc1C1=NC(c2ccc(Cl)cc2)C(c2ccc(Cl)cc2)N1C(=O)N1CCN(CCCCC(=O)NO)CC1` (stereo not drawn), for which the IC50 was determined as 12.9 µM in [1]; 9.8 µM in experiment [3]; 3.78 µM in [4]; 0.98 µM in [5]; 5.21 µM in [6]. Besides, the affinity in [2] corresponds to a Ki of 0.17 µM.
For `CCOc1cc(C(C)(C)C)ccc1C1=NC(c2ccc(Cl)cc2)C(c2ccc(Cl)cc2)N1C(=O)N1CCC(C(=O)Nc2ccc(/C=C/C(=O)NO)cc2)CC1` (stereo not drawn), the IC50 in experiment [1] was found to be 9.36 µM; in experiment [3], 7.22 µM; in experiment [4], 7.59 µM; in experiment [5], 0.97 µM; in [6] it was 9.64 µM. For the same compound, in [2], the inhibitory constant (Ki) is 2.65 µM.
As for `CCOc1cc(C(C)(C)C)ccc1C1=NC(c2ccc(Cl)cc2)C(c2ccc(Cl)cc2)N1C(=O)N1CCN(CCCCCCCC(=O)NO)CC1` (stereo not drawn), the IC50 amounted to 7.76 µM in experiment [1]; 4.83 µM in experiment [3]; 2.01 µM in experiment [4]; 0.41 µM in experiment [5]; 1.71 µM in experiment [6]. This compound gave a Ki in experiment [2] of 0.29 µM.
On to `CCOc1cc(C(C)(C)C)ccc1C1=NC(c2ccc(Cl)cc2)C(c2ccc(Cl)cc2)N1C(=O)N1CCC(C(=O)NO)CC1` (stereo not drawn), for which the IC50 in experiment [1] came out at 9.87 µM; in experiment [3], 10.1 µM; in [4], 2.99 µM; in experiment [5], 9.72 µM; in experiment [6], 9.3 µM. Moreover, in experiment [2], affinity was put at a Ki of 0.057 µM.
For `CCOc1cc(C(C)(C)C)ccc1C1=NC(c2ccc(Cl)cc2)C(c2ccc(Cl)cc2)N1C(=O)NCCCCC(=O)Nc1ccccc1N` (stereo not drawn), the IC50 in [1] was 15.6 µM; in experiment [3] it was 29.1 µM; in [4], 18.4 µM; in [5], more than 20 µM; in [6], 13.9 µM. Besides, the affinity in experiment [2], expressed as Ki, was 0.96 µM.
On to `CCOc1cc(C(C)(C)C)ccc1C1=NC(c2ccc(Cl)cc2)C(c2ccc(Cl)cc2)N1C(=O)N1CCN(CCCCCC(=O)NO)CC1` (stereo not drawn), for which the IC50 was 9.39 µM in [1]; 7.26 µM in experiment [3]; 2.91 µM in experiment [4]; 0.97 µM in [5]; 4.03 µM in experiment [6]. The Ki in experiment [2] is 0.17 µM.
Consider `CCOc1cc(C(C)(C)C)ccc1C1=NC(c2ccc(Cl)cc2)C(c2ccc(Cl)cc2)N1C(=O)NCCCCCCCC(=O)Nc1ccccc1N` (stereo not drawn), for which the IC50 in experiment [1] stood at 19.6 µM; in experiment [3], 20.3 µM; in experiment [4], 15.2 µM; in [5] it was 3.59 µM; in [6] it was 9.91 µM. In [2], this compound returned a Ki of 1.02 µM.
As to `CCOc1cc(C(C)(C)C)ccc1C1=NC(c2ccc(Cl)cc2)C(c2ccc(Cl)cc2)N1C(=O)NCCCCCCC(=O)Nc1ccccc1N` (stereo not drawn), the IC50 in experiment [1] was 17.5 µM; in [3], more than 100 µM; in experiment [4] it was 16 µM; in experiment [5] it was 6.07 µM; in [6], 10.1 µM. Moreover, the Ki in [2] amounted to 0.62 µM.
As to `CC(=O)Nc1ccc(C(=O)Nc2ccccc2N)cc1` [TACEDINALINE], the IC50 worked out at 6.79 µM in experiment [1], 13.2 µM in [3], 10.2 µM in experiment [4] and 9.83 µM in experiment [6].
`CCOc1cc(C(C)(C)C)ccc1C1=NC(c2ccc(Cl)cc2)C(c2ccc(Cl)cc2)N1C(=O)N1CCN(c2ncc(C(=O)NO)cn2)CC1` (stereo not drawn): the IC50 in [1] is 5.45 µM; in experiment [3], 3.46 µM; in experiment [4], 1.97 µM; in experiment [5] it was 0.31 µM; in experiment [6], 0.98 µM. The Ki in experiment [2] came out at 1.05 µM.
Regarding `CCOc1cc(C(C)(C)C)ccc1C1=N[C@@H](c2ccc(Cl)cc2)[C@@H](c2ccc(Cl)cc2)N1C(=O)N1CCN(CCCCCCC(=O)NO)CC1`, the inhibition result in [11] and in experiment [12] was “Active” throughout. Further, the Ki in experiment [2] was found to be 0.06 µM. For the same compound, the half-maximal inhibitory concentration (IC50) in experiment [4] was found to be 0.99 µM; in experiment [5] it was 0.89 µM; in experiment [6], 1.11 µM.
Consider `CCOc1cc(C(C)(C)C)ccc1C1=NC(c2ccc(Cl)cc2)C(c2ccc(Cl)cc2)N1C(=O)N1CCN(CC(=O)NO)CC1` (stereo not drawn), for which the IC50 was 11.5 µM in experiment [1]; 11.7 µM in experiment [3]; 4.32 µM in experiment [4]; 4.2 µM in experiment [5]; 5.88 µM in experiment [6]. Further, the Ki in [2] was 0.07 µM.
Turning to `CCOc1cc(C(C)(C)C)ccc1C1=NC(c2ccc(Cl)cc2)C(c2ccc(Cl)cc2)N1C(=O)N1CCC(Nc2ncc(C(=O)NO)cn2)CC1` (stereo not drawn), the IC50 in experiment [1] came to 7.91 µM; in experiment [3] it was 2.68 µM; in experiment [4], 3.11 µM; in experiment [5], 1.01 µM; in experiment [6], 3.24 µM. The inhibition constant (Ki) in experiment [2] was 0.46 µM.
As for `CCOc1cc(C(C)(C)C)ccc1C1=NC(c2ccc(Cl)cc2)C(c2ccc(Cl)cc2)N1C(=O)NCCCCCC(=O)Nc1ccccc1N` (stereo not drawn), the IC50 was 19.1 µM in [1]; more than 100 µM in experiment [3]; 20.3 µM in experiment [4]; more than 20 µM in experiment [5]; 21.8 µM in experiment [6]. Moreover, the Ki in [2] came to 1.43 µM.
